Laboratory results published in patent US8188222B2, “High molecular weight derivative of nucleic acid antimetabolite” (priority 2006, dated 2012).
Where a name gives a salt, the structure may show the parent alone.

Tests used:
[1] = system: mouse colon cancer, Colon26; assay: Antitumor effect against tumor-bearing mouse (1); assay type: in vivo; conditions: 8th day after initiation of administration, once intravenously, volume on day of administration = 1.0, average ± SD
Source text: Tumor of mouse colon cancer, Colon26, maintained by subcutaneous subculture in mice, was minced into about 2-mm square blocks, and the blocks were transplanted subcutaneously on the dorsal part of a mouse using a trocar. On the 7th day after tumor transplantation, the compound of Example 5 dissolved in a 5% glucose injection solution and gemcitabine hydrochloride as a control drug dissolved in physiological saline were respectively administered once intravenously at the doses indicated in Table 2. The tumor volumes on the day of initiation of administration and on the 8th day after the initiation of administration were calculated by the following equation, and the relative tumor volumes on the day of initiation of administration and on the 8th day after the initiation of administration were determined.

[2] = system: mouse colon cancer, Colon26; assay: Antitumor effect against tumor-bearing mouse (2); assay type: in vivo; conditions: once intravenously, dose 160 in terms of gemcitabine hydrochloride, average ± SD
Source text: A tumor mass of mouse colon cancer, Colon26, which had been subcutaneously subcultured in a mouse was cut into a block having an edge of about 2 mm at each side, and was transplanted under the skin of a mouse using a trocar. On the 7th day after tumor transplantation, the compound of Example 11, the compound of Example 14 and the compound of Example 17, dissolved in a 5% glucose injection solution and gemcitabine hydrochloride as a control drug dissolved in physiological saline were respectively administered once intravenously at the doses indicated in Table 3. The tumor volumes on the day of initiation of administration, and on the 7th day and 26th day after the initiation of administration were calculated by the above-described equation, and the relative tumor volumes on the day of initiation of administration and on the 7th day and 26th day after the initiation of administration were determined.

**Q.** Which results are given for `Nc1ccn([C@@H]2O[C@H](CO)[C@@H](O)C2(F)F)c(=O)n1` [Control drug, gemcitabine hydrochloride]?
**A.** Relative tumor volume ([1]; dose 40 mg/kg in terms of gemcitabine hydrochloride): 5.3 ± 1.1; Relative tumor volume ([1]; dose 200 mg/kg in terms of gemcitabine hydrochloride): 4.8 ± 1.7; Relative tumor volume * ([2]; 7th day after initiation of administration): 1.5 ± 1.5; Relative tumor volume ** ([2]; 26th day after initiation of administration): 25.8 ± 36.0
